Measured values published in patent publication EP4759810A1, “PROTAC TARGETING BCL-XL PROTEIN AND USE THEREOF” (BEIJING SUNCELL BIO-MEDICAL CO., LTD., priority 2023, dated 2025).
Read-outs that look alike come from different tables or passages of the source.

Assays:
[1] = tested on: Molt-4 cells; test: Molt-4 cell killing activity test (CCK-8); type: cell-based; settings: for killing Molt-4 cells at different concentrations (Figure 1), in words: 0.001-3 µM, comparison with control molecules; for EC50: Homo sapiens
Method in brief: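 Molt-4 cells in RPMI-1640 with 10% FBS were exposed to compounds at 0.001–3 µM final, triplicate wells, for three days at 37°C. Viability was read by CCK-8 absorbance at 450 nm after 0.5–2 h, expressed relative to blank control.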

[2] = tested on: Molt-4 cells; test: Detection of E3 enzyme-dependence: Molt-4 cell killing with or without pomalidomide (CCK-8); type: cell-based; settings: 10 µM pomalidomide, Figure 2
Description: Actively growing and healthy Molt-4 cells were collected, centrifuged at 1000 rpm for 5 minutes, and after removing the supernatant, the cells were resuspended in fresh RPMI-1640 medium containing 10% fetal bovine serum. Cell counting was then performed. The cell density was adjusted to 120,000 cells per milliliter, and 100 µL of the cell suspension was added to each well of a 96-well transparent cell culture plate. It was noted that the edge wells of the 96-well plate were not used for testing, and 300 µL of PBS alone was added to these wells to reduce medium evaporation.
Molt-4 cells were plated in duplicate according to the number of the tested small molecules, so as to test the effects with and without the addition of pomalidomide (a competitive ligand specific for E3 ligase), in which one half of the parallel cells was added 10 µM pomalidomide. A series of small molecule concentration gradients (0.001, 0.003, 0.01, 0.03, 0.1, 0.3, 1, and 3 µM) were pre-set, and a series of 2× drug dilutions for the above concentrated were prepared in DMEM medium containing 10% fetal bovine serum. 100 µL of the above DMEM medium containing the gradient concentrations of the drug was added to 96-well plates that have been pre-plated with cells, so that the final drug concentration in each well was the pre-set series of concentrations respectively. Three replicate wells were used for each test drug concentration. The 96-well plates were placed back in a 37°C incubator, and the cell viability was detected after three days.
Cell viability after drug treatment was detected by using the CCK-8 method: three days after adding the drugs, the plates were taken out, and the supernatant was discarded. Then, 100 µL of pre-prepared CCK-8 working solution was added to each well. The CCK-8 working solution was obtained through diluting a CCK-8 stock solution (C0041, Beyotime) by 10-fold volumn with a serum-free DMEM culture medium. The 96-well plates with the added CCK-8 working solution were placed back in the 37°C incubator and incubated for 0.5-2 hours. The plates were then taken out, and the absorbance value (OD value) of each well was measured at a wavelength of 450 nm. The cell viability in each experimental group was calculated according to the following formula: Relative cell viability (%) = (Blank control group - Experimental group) / Blank control group × 100%.

[3] = tested on: HEF cells; test: Senescent cell killing activity test, HEF cell model (CCK-8); type: cell-based, human; settings: for toxicity on normal non-senescent HEF cells: higher concentration (25 µM)
Description: (§1) To avoid replication of the induced senescent cells, low-passage proliferating HEF cells (<10 passages), MRC5 cells (<6 passages), and BJ cells (<10 passages) were used as normal controls. For chemical drug induced senescence, HEF cells were treated with 10 µM etoposide (Selleck, S1225) for 36-48 hours, MRC5 cells were treated with 5 µM bleomycin (Selleck, S1225) for 72 hours, and BJ cells were treated with 10 µg/mL bleomycin for 72 hours. Three days after the treatment, the cells were subcultured in fresh culture medium at a 1:3 ratio for 72 hours before further analysis and use.
(§2) Non-senescent and induced-senescent HEF cells, non-senescent and induced-senescent MRC5 cells, and non-senescent and induced-senescent BJ cells were respectively digested with trypsin, and centrifuged at 1000 rpm for 5 minutes. Then, the supernatant was removed, and the cells were resuspended in fresh DMEM culture medium containing 10% fetal bovine serum for counting. The cell density was adjusted so that the non-senescent cell density was 4000 cells/100 µL and the senescent cell density was 7000 cells/100 µL. 100 µL of the cell suspension was added to each well of a 96-well transparent cell culture plate. It was noted that the edge wells of the 96-well plate were not used as testing wells, and 300 µL of PBS alone was added to these wells to reduce evaporation of the culture medium. The 96-well plates with the well-plated cells were placed back in a 37°C incubator for overnight culture until the cells adhered. On the next day, the small molecule compounds to be tested were prepared and added after the cells had adhered.
(§3) A series of small molecule concentration gradients (0.01, 0.03, 0.1, 0.3, 1, 3, 10, and 25 µM) were pre-set, and a series of 2× drug dilutions for the above concentrations were prepared in DMEM culture medium containing 10% fetal bovine serum. 100 µL of the above DMEM culture medium containing the gradient concentrations of the drug was added to each well of the 96-well plate that had been well-plated with cells, so that the final drug concentration in each well was the pre-set series of concentrations. Three replicate wells were used for each test drug concentration. The 96-well plates were placed back in a 37°C incubator, and cell viability was measured after three days.
(§4) Three days after adding the drug, the plates were taken out, and the supernatant was discarded. 100 µL of pre-prepared CCK-8 working solution was added to each well. The CCK-8 working solution was obtained through diluting a CCK-8 stock solution (C0041, Beyotime) with a serum-free DMEM culture medium by 10-fold volumn. The 96-well plates containing the CCK-8 working solution were placed back in the 37°C incubator and incubated for 0.5-2 hours. The plates were then taken out, and the absorbance value (OD value) of each well was measured at a wavelength of 450 nm. The cell viability in each experimental group was calculated according to the following formula: Relative cell viability (%) = (Blank control group - Experimental group) / Blank control group × 100%.

[4] = tested on: MRC5 cells; test: Senescent cell killing activity test, MRC5 cell model (CCK-8); type: cell-based, human; settings: for activity for killing senescent cells at lower concentrations compared to A-1331852: 0.01 µM and 0.03 µM; for selectivity for senescent cells: Figures 3G-3L
Description: as §1, §2, §3, §4

[5] = biological target: T1, Bcl-xL protein (Homo sapiens, UniProt Q07817); test: Degradation experiment of Bcl-xL target protein (Western blot in Molt-4 cells); type: cell-based; settings: 100 nM, 0, 2, 6, 16 h, GAPDH internal control, Figure 4
T1 construct: host or cells: Molt-4 cells
Description: Actively growing and healthy Molt-4 cells were subcultured into a fresh RPMI-1640 medium containing 10% fetal bovine serum, and each PROTAC molecule was added thereto at a final concentration of 100 nM. After drug treatment for the specified times (0, 2, 6, and 16 hours), the cells were collected, the supernatant was discarded by centrifugation, and the cells were washed twice with pre-cooled PBS buffer. Total protein was extracted with a lysis buffer (Servicebio, G2002-100ML), and the protein concentration was normalized by using a BCA protein quantification kit (Servicebio, G2026). Protein samples were mixed with a protein-loading buffer and incubated at 95°C for 5 minutes. Western blotting experiments were performed by using the following antibodies: Bcl-xL (Abcam, catalog number ab32370), diluted at 1:500; GAPDH antibody (Servicebio, catalog number GB15004), diluted at 1:1000; and horseradish peroxidase-conjugated goat anti-rabbit secondary antibody (Servicebio, catalog number GB23303), diluted at 1:5000.

[6] = tested on: platelets; test: In vivo platelet toxicity test in mice; settings: intraperitoneal
Description: The in vivo platelet toxicity test was performed by using 5-6 week old female C57BL/6J mice. The C57BL/6J mice were purchased from Beijing Vital River Laboratory Animal Technology Co., Ltd. and housed under specific pathogen-free (SPF) conditions, with a 12-hour light/12-hour dark cycle, and free access to food and water. […] Different doses of the molecules to be tested (e.g., 0.1, 0.5, 2.5 mg/kg or 2, 5, 20 mg/kg) were prepared in advance with the aforementioned vehicle, and administered to mice via intraperitoneal injection at a volume of 200 µL for each mouse. After administration was completed, approximately 50 µL of blood was collected from each mouse at different time points via the intra-canthus sampling method into EDTA anticoagulant tubes (RAM Scientific), then a routine analysis of blood was performed by using a hematology analyzer, and the platelets was counted.

[7] = tested on: BJ cells; test: Senescent cell killing activity test, BJ cell model (CCK-8); type: cell-based, human; settings: Figures 3M-3O; for killing effects for senescent cells: bleomycin-induced senescent skin-derived BJ cell model
Description: as §1, §2, §3, §4

[8] = Metabolic stability assay in liver microsomes (human); type: in vitro ADME
Description: (§5) The metabolic reaction of compounds in liver microsome was performed in a system with a total volume of 400 µL, and the following steps below were sequentially performed for the reaction and detection: 1) 200 µL of phosphate buffer (200 mM), 106 µL of sterile ultrapure water, and 40 µL of magnesium chloride solution (50 mM) were added to each detection tube to prepare a reaction working solution. 2) Two reaction systems with or without adding NADPH were prepared for each compound to be tested. For the reaction system with adding NADPH: 10 µL of liver microsomes (20 mg/mL) and 40 µL of NADPH (10 mM) were added to the above working solution; for the reaction system without adding NADPH: 10 µL of liver microsomes (20 mg/mL) and 40 µL of sterile ultrapure water were added to the above working solution. The final concentration of liver microsomes in both reaction systems was 0.5 mg/mL. 3) 4 µL of the compound to be tested ([…]) was added to each reaction tube, resulting in a final concentration of 1 µM for the compound in the reaction system. The detection tubes were placed at 37°C for reaction. 4) 50 µL samples were taken from each detection tube at 0, 15, 30, 45, and 60 minutes after adding the compound. The reaction was terminated by adding cold acetonitrile containing IS (100 nM alprazolam, 200 nM labetalol, 200 nM caffeine, and 2 µM ketoprofen) in a 4× volume. The samples were centrifuged at 3220 g for 40 minutes, 100 µL of the supernatant was mixed with 100 µL of ultrapure water, and a sample was taken for LC-MS/MS analysis.
(§6) Calculation of in vitro liver microsomal metabolic half-life and in vitro metabolic intrinsic clearance rate: The LC-MS detection results were analyzed to obtain the percentage of the remaining amount of the tested compound relative to the initial amount at each time point. The natural logarithm of the remaining percentage was linearly fitted against the incubation time.

[9] = Metabolic stability assay in liver microsomes (mouse); type: in vitro ADME
Description: as §5, §6

[10] = 72 h, Molt-4 cells, three days, CCK-8, read-out: EC50 (Molt-4)
[11] = Bcl-xL-positive Molt-4 cells, read-out: cellular activity / killing activity (Molt-4 cells)
[12] = human liver microsomes 0.5 mg/mL, 1 µM compound, 37°C
[13] = mouse liver microsomes 0.5 mg/mL, 1 µM compound, 37°C

T1 sequence (Q07817 whole entry): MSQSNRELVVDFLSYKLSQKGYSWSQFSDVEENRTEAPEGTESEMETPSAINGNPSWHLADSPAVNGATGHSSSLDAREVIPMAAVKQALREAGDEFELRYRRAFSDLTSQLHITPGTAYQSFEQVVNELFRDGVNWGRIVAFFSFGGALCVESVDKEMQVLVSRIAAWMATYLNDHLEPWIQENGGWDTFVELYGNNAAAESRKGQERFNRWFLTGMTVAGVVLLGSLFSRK

Row | Compound | killing Molt-4 cells at different concentrations (Figure 1), in words [1] | EC50 [1, 10] [nM] | EC50 [1, 11] [nM] | cell killing activity after addition of pomalidomide (+poma) compared to without (-poma) [2] | toxicity on normal non-senescent HEF cells [3] | activity for killing senescent cells at lower concentrations compared to A-1331852 [4] | selectivity for senescent cells [4] | degradation of the Bcl-xL protein [5] | killing effects for senescent cells [7] | killing effect for the normal early-passage BJ cells [7] | also measured
1 | O=C1CCN(c2ccc(N3CCN(CC#Cc4ccc(OCCCc5ccc(N6CCc7cccc(C(=O)Nc8nc9ccccc9s8)c7C6)nc5C(=O)O)c(F)c4)CC3)cc2)C(=O)N1 [APQ9] | comparable to A-1331852 | < 10 | < 10 | significantly reduced cell killing activity | no toxicity on normal non-senescent HEF cells | superior to that of A-1331852 | better selectivity for senescent cells | had the ability to degrade the Bcl-xL protein |  |  | activity for killing senescent cells at lower concentrations compared to A-1331852 ([3]; HEF cell model, 0.01 µM and 0.03 µM): better activity for killing senescent cells at lower concentrations; killing senescent HEF cells ([3]; etoposide-induced senescent vs normal HEF cells, Figures 3A-3F): efficiently and selectively kill senescent HEF cells; platelet number in peripheral blood, in words ([6]; 5 mg/kg, Figure 5B): slightly decrease in platelet number
2 | O=C1CCN(c2ccc(N3CCC(CN4CCN(CC#Cc5ccc(OCCCc6ccc(N7CCc8cccc(C(=O)Nc9nc%10ccccc%10s9)c8C7)nc6C(=O)O)c(F)c5)CC4)CC3)cc2F)C(=O)N1 [APQ10-3] | comparable to A-1331852 | < 10 | < 10 |  |  |  |  |  | highly selective and potent killing effects for senescent cells | without significant killing effect for the normal early-passage BJ cells | 
3 | O=C1CCN(c2ccc(N3CCN(CC#Cc4ccc(OCCCc5ccc(N6CCc7cccc(C(=O)Nc8nc9ccccc9s8)c7C6)nc5C(=O)O)c(F)c4)CC3)cc2F)C(=O)N1 [APQ902] | comparable to A-1331852 | < 10 | < 10 | significantly reduced cell killing activity |  | superior to that of A-1331852 | better selectivity for senescent cells | had the ability to degrade the Bcl-xL protein | highly selective and potent killing effects for senescent cells | without significant killing effect for the normal early-passage BJ cells | 
4 | Cc1c(-c2ccc(N3CCc4cccc(C(=O)Nc5nc6ccccc6s5)c4C3)nc2C(=O)O)cnn1CC12CC3CC(CC(C3)C1)C2 [Compound A-1331852, A-1331852, reference compound] | highest cellular activity in the test | < 10 |  |  | toxic killing effects on normal non-senescent HEF cells |  |  |  |  |  | clearance rate (metabolic clearance rate) ([8]; human liver microsomes): 53.07 µL/min/mg; Clint [8, 12]: 53.07 µL/min/mg protein; T1/2 [8, 12]: 26.12 min; clearance rate (metabolic clearance rate) ([9]; mouse liver microsomes): 18.43 µL/min/mg; Clint [9, 13]: 18.43 µL/min/mg protein; T1/2 [9, 13]: 75.21 min; toxicity on platelets ([6]; 0.5 mg/kg, Figure 5A): severe toxicity on platelets; platelet number in peripheral blood ([6]; 5 mg/kg, Figure 5B): below 100 × 10^9/L
